Entries after “also recorded” stand apart in the source; their conditions may differ.
Tests used:
[1] = tested on: axotomized dorsal root ganglion (DRG) neurons; test: neurite outgrowth assay in primary cultures of axotomized DRG neurons; assay type: cell-based, adult C57BL/6 mice; conditions: vs 0.1% DMSO solvent control; for average total neurite length (neurite outgrowth): glycopyrrolate 5, 10 and 100 μM or mexiletine 10, 50 and 100 μM added 1 h after plating, 17 h growth; for cell survival of DRG neurons: same cultures, 17 h
Description: Primary cultures of DRG neurons were prepared from adult C57BL/6 mice, and plated onto a poly-D-lysine and laminin-coated 8-well chamber. Glycopyrrolate and mexiletine were added into the cultured DRG neurons at various concentrations as indicated one hour after plating. 0.1% DMSO served as solvent control. The cultures were allowed to grow for 17 h. After fixation, the DRG neurons were immunostained with anti-βIII-tubulin primary antibodies highlighting the cell bodies of DRG neurons and their adjacent neurites for neurite outgrowth assay. (A) Average total neurite length was quantified using automated WIS-NeuroMath 5 software. […] Scale bar: 500 μm.
In the current study, the intrinsic growth capacity of peripheral neurons was first assessed, which is a critical determinant for successful axon regeneration after injury, after treating the neurons with glycopyrrolate and mexiletine. Primary culture of adult dorsal root ganglion (DRG) neurons is a widely used in vitro models to assess cues that could promote axonal outgrowth. Primary DRG neurons were prepared from adult C57BL/6 mice (8-12 weeks old). DRG neurons were dissected out, mildly digested with a solution of collagenase and dispase II (Roche Diagnostics), trypsinized and mechanically dissociated into single cell suspension using flame-polished Pasteur pipettes with three different diameters. Two thousand DRG neurons were plated onto an 8-well chamber slide pre-coated with poly-D-lysine and laminin (Sigma Aldrich), and cultured in full Neurobasal medium (Gibco) supplemented with B27, 200 mM L-glutamine, penicillin-streptomycin, 50 ng/ml NGF (Gibco), 10 μM Ara-C and 2 ng/ml GDNF (Gibco). Glycopyrrolate (5, 10 and 100 μM) or mexiletine (10, 50 and 100 μM) was added into the cultured neurons 1 hour after plating, and the cultures were allowed to grow for 17 hours.
After 17 hours of incubation, the cultures were fixed with 4% paraformaldehyde (PFA), blocked with 0.5% bovine serum albumin (BSA)/0.1% Triton X-100 in PBS for 1 hour at room temperature, and incubated with anti-β III-tubulin primary antibodies (1:800, Sigma Aldrich) for overnight at 4° C. After washing with PBS, the cultures were incubated with Alexa Fluor 488-conjugated secondary antibodies (1:300, Molecular Probes) for 1 hour at room temperature. To assess the neurite outgrowth of axtomized DRG neurons after treatment of glycopyrrolate or mexiletine, 30 non-overlapping images were taken at 10× magnifications using Nikon Ni-E microscope equipped with a motorized stage. Total neurite length of individual DRG neurons from each treatment condition were measured by automated WIS-NeuroMath software (Weizmann Institute of Science). The total neurite length of the neurons was averaged from at least 250 neurons per condition. […]

[2] = tested on: sciatic nerve crush injury; test: sciatic nerve pinch test after sciatic nerve crush injury; assay type: in vivo, adult male C57BL/6 mice; conditions: for increase of the most distal axonal regrowth (sciatic nerve pinch test): i.p. glycopyrrolate 2 mg/kg or mexiletine 10 mg/kg for 3 consecutive days after injury, 72 hours after crush, n=5-6 per group; for in vivo axon regeneration after sciatic nerve crush injury (pinch test), in words: i.p. glycopyrrolate 2 mg/kg or mexiletine 10 mg/kg, 3 days after injury
Description: (§1) (A) Experimental paradigm for sciatic nerve pinch test. Sciatic nerve crush injury was performed on the left sciatic nerve of adult male C57BL/6 mice. We performed nerve pinch test in adult mice injected intraperitoneally with glycopyrrolate (2 mg/kg) or mexiletine (10 mg/kg) for 3 consecutive days after injury. […] Scale bar: 100 μm. Mean±SEM; *P<0.05, Student's t-test.
(§2) In the current project, a sciatic nerve crush injury was used as an in vivo animal model for peripheral nerve injury. Adult male C57BL/6 mice (8-12 weeks old) were used for all experiments. All mouse husbandry and euthanasia were in compliance with the Institutional Animal Care and Use Committee (IACUC) guidelines. Surgical procedures performed were in accordance with protocols approved by the City University of Hong Kong Animal Research Ethics Sub-Committee and Department of Health, Hong Kong SAR. Under anesthesia, the left sciatic nerve was exposed, and crushed with 5/45 smooth forceps (Fine Science Tools) for 15 seconds at the level of external rotator muscles, distal to the sciatic notch after separation from the surrounding connective tissue (FIG. 2).
(§3) Glycopyrrolate or mexiletine was first dissolved in 0.9% saline, and injected intraperitoneally immediately after sciatic nerve crush injury for 3 consecutive days at 2 mg/kg and 10 mg/kg, respectively (FIGS. 3A and B).
(§4) The extent of axon regeneration was evaluated using sciatic nerve pinch test, and verified by quantifications of GAP-43-positive regenerating axonal fibres 72 hours after sciatic nerve crush injury.
Sciatic nerve pinch test was performed on the ipsilateral nerves 72 hours after sciatic nerve crush injury. The left sciatic nerve was first exposed to mid-thigh level under deep anaesthesia (i.e. 2.5% isoflurane). Under light anaesthesia (i.e. 1% isoflurane), a series of pinches were applied from the most distal part of the nerve (i.e. trifurcation), moving proximally towards the crushed site using smooth forceps (Fine Science Tools). The distance (in mm) representing the extent of axonal regrowth was recorded from the crushed site to the most distal point of the nerve where initial withdrawal response was observed after pinching (FIGS. 4A and C).

[3] = tested on: sciatic nerve crush injury; conditions: 72 hours after crush; for increase in number of GAP43-positive regenerating axons: i.p. glycopyrrolate 2 mg/kg or mexiletine 10 mg/kg for 3 days, 4 mm distal to the crushed site, n=3 per group; for GAP-43-positive regenerating axonal fibres at 4 mm distal to the crushed site, in words: i.p. glycopyrrolate 2 mg/kg or mexiletine 10 mg/kg
Description: as §1, §2, §3, §4

[4] = tested on: M1-M3 mAChRs; conditions: background description of the drug; cited from earlier work

Row | SMILES | average total neurite length (neurite outgrowth) [1] | cell survival of DRG neurons [1] | increase of the most distal axonal regrowth (sciatic nerve pinch test) [2] [%] | in vivo axon regeneration after sciatic nerve crush injury (pinch test), in words [2] | increase in number of GAP43-positive regenerating axons [3] [%] | GAP-43-positive regenerating axonal fibres at 4 mm distal to the crushed site, in words [3] | selectivity among mAChR subtypes [4]
1 | C[N+]1(C)CCC(OC(=O)C(O)(c2ccccc2)C2CCCC2)C1 (stereo not shown) [glycopyrrolate] | induced robust neurite extension; also recorded: induce substantial neurite outgrowth | did not exhibit any effects on cell survival; also recorded: without exerting any neuronal survival effects | 61 | markedly accelerated in vivo axon regeneration; also recorded: significantly enhanced axon regeneration | 73 | More GAP-43-positive regenerating axonal fiber were observed | no selectivity to M1-M3 mAChRs
2 | Cc1cccc(C)c1OCC(C)N (stereo not shown) [mexiletine] | induced robust neurite extension; also recorded: induce substantial neurite outgrowth | did not exhibit any effects on cell survival; also recorded: without exerting any neuronal survival effects | 59 | markedly accelerated in vivo axon regeneration; also recorded: significantly enhanced axon regeneration | 67 | More GAP-43-positive regenerating axonal fiber were observed | –

— patent US11759451B2, “Therapeutic potential of glycopyrrolate and mexiletine for nervous system injury” (City University of Hong Kong, priority 2020, dated 2023)
